The values that follow come from article PMC8251769, “Phosphonate as a Stable Zinc‐Binding Group for “Pathoblocker” Inhibitors of Clostridial Collagenase H (ColH)” (Chemmedchem, 2021).

Read-outs that look alike come from different tables or passages of the source.

One assay concerns the target T1, HDAC-3 (Homo sapiens, UniProt O15379).
T1 construct: gene HDAC3
The assay can be described thus: fluorescence inhibitor screening kit. The class given is biochemical. To be noted: read-out: Inhibition [%] at 100 μM compound^[a] / 5 a (thiol). The text has this:
fluorescence inhibitor screening kit on HDAC-3

Another assay has as its target T2, HDAC-8 (Homo sapiens, UniProt Q9BY41).
T2 construct: gene HDAC8
T2 sequence (Q9BY41 1-377): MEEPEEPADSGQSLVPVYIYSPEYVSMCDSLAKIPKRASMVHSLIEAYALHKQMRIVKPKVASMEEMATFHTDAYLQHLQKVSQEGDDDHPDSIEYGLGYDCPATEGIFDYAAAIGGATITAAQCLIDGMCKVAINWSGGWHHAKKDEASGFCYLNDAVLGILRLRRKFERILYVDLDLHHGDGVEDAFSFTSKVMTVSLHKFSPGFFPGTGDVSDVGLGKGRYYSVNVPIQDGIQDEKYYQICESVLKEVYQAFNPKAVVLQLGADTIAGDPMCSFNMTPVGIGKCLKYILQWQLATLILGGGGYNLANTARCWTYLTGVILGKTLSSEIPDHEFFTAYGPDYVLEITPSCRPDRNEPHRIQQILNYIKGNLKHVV
The assay can be described thus: fluorescence inhibitor screening kit. To be noted: read-out: Inhibition [%] at 100 μM compound^[a] / 5 a (thiol). The class given is biochemical. The text has this:
fluorescence inhibitor screening kit on HDAC-8

The target of assay [1] is ColH-PD (peptidase domain of collagenase H) (Hathewaya histolytica, UniProt Q46085). The assay can be described thus: biochemical.
For a further assay, the target named is T3, MMP-14 (Homo sapiens, UniProt P50281).
T3 construct: gene MMP14; catalytic domain, AnaSpec
The assay can be described thus: SensoLyte […] generic MMP activity kit. The class given is biochemical. To be noted: read-out: Inhibition [%] at 100 μM compound^[a] / 26 (phosphonate).

Another assay deals with T4, MMP-8 (Homo sapiens, UniProt P22894).
T4 construct: gene MMP8; catalytic domain, AnaSpec
The assay can be described thus: SensoLyte […] generic MMP activity kit. The format is biochemical. To be noted: read-out: Inhibition [%] at 100 μM compound^[a] / 26 (phosphonate).

ColH-PD (peptidase domain of collagenase H), sequence (Q46085 331-721 limits assumed): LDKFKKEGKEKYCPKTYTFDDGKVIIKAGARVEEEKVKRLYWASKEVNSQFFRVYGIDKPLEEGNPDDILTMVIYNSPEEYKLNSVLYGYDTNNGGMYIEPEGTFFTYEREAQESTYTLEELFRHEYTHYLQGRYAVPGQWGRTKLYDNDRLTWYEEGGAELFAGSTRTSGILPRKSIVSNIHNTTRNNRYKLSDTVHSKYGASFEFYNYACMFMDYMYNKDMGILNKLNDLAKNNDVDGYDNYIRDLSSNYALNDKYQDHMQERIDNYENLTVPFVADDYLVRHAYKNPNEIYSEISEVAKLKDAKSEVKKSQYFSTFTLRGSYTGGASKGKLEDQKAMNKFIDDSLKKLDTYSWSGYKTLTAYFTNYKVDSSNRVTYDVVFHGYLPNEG
T1 sequence (O15379 whole entry): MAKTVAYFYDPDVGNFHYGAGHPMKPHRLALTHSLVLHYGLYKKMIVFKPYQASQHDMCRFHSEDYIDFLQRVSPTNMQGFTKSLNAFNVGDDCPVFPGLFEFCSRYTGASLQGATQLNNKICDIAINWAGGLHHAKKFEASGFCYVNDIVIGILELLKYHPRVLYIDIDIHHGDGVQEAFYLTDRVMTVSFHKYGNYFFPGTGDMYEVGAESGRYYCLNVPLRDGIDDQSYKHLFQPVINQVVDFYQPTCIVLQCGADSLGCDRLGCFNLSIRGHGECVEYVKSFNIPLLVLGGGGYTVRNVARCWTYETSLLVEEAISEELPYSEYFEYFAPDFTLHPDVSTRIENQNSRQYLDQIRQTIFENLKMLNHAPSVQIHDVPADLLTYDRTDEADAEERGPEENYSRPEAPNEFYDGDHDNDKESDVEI
T4 sequence (P22894 100-262 limits assumed): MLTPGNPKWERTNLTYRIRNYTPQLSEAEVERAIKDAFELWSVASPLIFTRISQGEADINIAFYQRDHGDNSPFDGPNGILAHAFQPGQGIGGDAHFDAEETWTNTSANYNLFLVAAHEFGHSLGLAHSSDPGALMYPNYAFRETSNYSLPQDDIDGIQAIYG

For `CC(=O)c1ccc(NC(=O)CS)cc1` [5a, thiol 5 a], the inhibition at 100 µM on HDAC-3 turned out to be 51 ± 7%; at HDAC-8 it was 48 ± 5%.
In the case of `NC(=O)CC(=O)Nc1ccccc1` [compound 8, N^1-Phenylmalonamide], the half-inhibitory concentration (IC50) – broadly, the concentration that inhibits the measured activity by half – in assay [1] was greater than 500 µM.
`O=C(O)CC(=O)Nc1ccccc1` [compound 9, 3-Oxo-3-(phenylamino)propanoic acid]: the IC50 in assay [1] is greater than 500 µM.
The molecule `O=C(O)CCC(=O)Nc1ccccc1` [compound 10, 4-Oxo-4-(phenylamino)butanoic acid] came in with an IC50 in assay [1] greater than 500 µM.
On the same count and under the same terms, for `O=C(CC(=O)Nc1ccccc1)NO` [compound 11, N^1-Hydroxy-N^3-phenylmalonamide] the value was roughly 500 µM; for `CC(=O)c1ccc(NC(=O)Cn2ccnn2)cc1` [compound 14, N-(4-Acetylphenyl)-2-(1H-1,2,3-triazol-1-yl)acetamide], greater than 500 µM.
In the case of `CC(=O)c1ccc(NC(=O)Cn2ccnc2)cc1` [compound 15, N-(4-Acetylphenyl)-2-(1H-imidazol-1-yl)acetamide], the midpoint of inhibition in assay [1], the IC50, lay at 448 ± 33 µM.
Same read-out and setting: with `CC(=O)c1ccc(NC(=O)Cn2cncn2)cc1` [compound 16, N-(4-Acetylphenyl)-2-(1H-1,2,4-triazol-1-yl)acetamide] the figure was greater than 500 µM; with `CC(=O)c1ccc(NC(=O)Cn2cnnn2)cc1` [compound 17, N-(4-Acetylphenyl)-2-(1H-tetrazol-1-yl)acetamide], greater than 500 µM.
Still for that read-out and setting: for `CC(=O)c1ccc(NC(=O)Cn2ncnn2)cc1` [compound 18, N-(4-acetylphenyl)-2-(2H-tetrazol-2-yl)acetamide] the value was greater than 500 µM; for `CC(=O)c1ccc(NC(=O)Cc2nn[nH]n2)cc1` [compound 19, N-(4-Acetylphenyl)-2-(2H-tetrazol-5-yl)acetamide], 22 ± 1 µM.
On the same count and under the same terms, for `CC(=O)c1ccc(NC(=O)Cc2c[nH]cn2)cc1` [compound 20, N-(4-Acetylphenyl)-2-(1H-imidazol-4-yl)acetamide] the value was greater than 500 µM; for `CC(=O)c1ccc(NC(=O)CC#N)cc1` [compound 23, N-(4-Acetylphenyl)-2-cyanoacetamide], greater than 500 µM; for `CC(=O)c1ccc(NC(=O)CS(=O)(=O)O)cc1` [compound 24, Sodium 2-((4-acetylphenyl)amino)-2-oxoethane-1-sulfonate], greater than 500 µM.
In assay [1], `CC(=O)c1ccc(NC(=O)CP(C)(=O)O)cc1` [compound 25, Sodium (2-((4-acetylphenyl)amino)-2-oxoethyl)(methyl)phosphinate] displayed an IC50 greater than 500 µM.
For `CC(=O)c1ccc(NC(=O)CP(=O)(O)O)cc1` [compound 26, Disodium (2-((4-acetylphenyl)amino)-2-oxoethyl)phosphonate], the inhibition at 100 µM was determined as 47 ± 13% on MMP-14 and 36 ± 1% on MMP-8. The IC50 in assay [1] (read-out: IC50) was 7 ± 1 µM.
Molecule `CCOP(C)(=O)CC(=O)Nc1ccc(C(C)=O)cc1` (centres unmarked) [compound 27, Ethyl (2-((4-acetylphenyl)amino)-2-oxoethyl)(methyl)phosphinate] came in with an IC50 in assay [1] greater than 500 µM.
